Values quoted from earlier work, collected in patent publication US20050288375A1, “Method and composition for treating neurodegenerative disorders” (Myriad Genetics, Incorporated, priority 2003, published 2005).

How the values were obtained:
[1] = rofecoxib at 25 mg daily; naproxen in the same trial
[2] = tested on: brain cells after cerebral ischemia; details: rats
[3] = not given; remark: listed apart in the source

CS(=O)(=O)c1ccc(C2=C(c3ccccc3)C(=O)OC2)cc1 [rofecoxib]
efficacy for treating AD [1]: failed to show efficacy

COc1ccc2cc([C@H](C)C(=O)O)ccc2c1 [Naproxen]
efficacy for treating AD [1]: failed to show efficacy

c1ccc(C2(N3CCCCC3)CCCCC2)cc1 [PCP, Phencyclidine]
destruction of brain cells after cerebral ischemia [2]: prevent the destruction of brain cells

CN1CC[C@]23CCCC[C@H]2[C@H]1Cc1ccc(O)cc13 [dextrorphan, (+)-3-hydroxy-N-methylmorphinan]
side effects at high doses: drowsiness, nausea, and decreased coordination

CC12CC3CC(C)(C1)CC(N)(C3)C2 [memantine, 1-amino-3,5-dimethyl adamantane]
efficacy in treating mild-to-moderate AD [3]: showed efficacy

COc1ccc2c(c1)[C@@]13CCCC[C@H]1[C@@H](C2)N(C)CC3 [dextromethorphan, (+)-3-methoxy-N-methylmorphinan]
side effects at high doses: drowsiness, nausea, and decreased coordination
